Measurements from ChEMBL document CHEMBL4665733, “Selective thyroid hormone receptor β agonists with oxadiazolone acid isosteres” (Bioorg Med Chem Lett, 2020).
The source made the active and inactive calls. No cut-off for these calls is given here.

How the values were obtained:
[1] = species on record: Homo sapiens; assay: Selectivity index, ratio of EC50 for THRalpha (unknown origin) to EC50 for THRbeta (unknown origin)
[2] = species on record: Rattus norvegicus; assay: Antihyperlipidemic activity in high cholesterol diet-induced Sprague-Dawley rat model of hypercholesterolemia assessed as reduction in serum total cholesterol level after 24 hrs; assay type: functional, organism-based
[3] = Half life in Beagle dog at 10 mg/kg, po measured up to 24 hrs by LC-MS/MS analysis; assay type: ADME, organism-based, Canis lupus familiaris; details: in vivo
[4] = Half life in cynomolgus monkey at 10 mg/kg, po measured up to 24 hrs by LC-MS/MS analysis; assay type: ADME, organism-based, Macaca fascicularis; details: in vivo
[5] = Half life in Sprague-Dawley rat at 10 mg/kg, po measured up to 24 hrs by LC-MS/MS analysis; assay type: ADME, organism-based; details: in vivo
[6] = tested on: Mus musculus; assay: Agonist activity at THRbeta in C57BL/6J mouse model of NASH assessed as increase in CYP7A1 gene expression in liver at 30 mg/kg, po via gavage administered once daily for 28 days; assay type: functional, organism-based; details: time 28.0 day
[7] = tested on: Mus musculus; assay: Agonist activity at THRbeta in C57BL/6J mouse model of NASH assessed as increase in Dio1 gene expression in liver at 30 mg/kg, po via gavage administered once daily for 28 days; assay type: functional, organism-based; details: time 28.0 day
[8] = tested on: Mus musculus; assay: Antifibrotic activity in CCl4-induced C57BL/6J mouse model of liver fibrosis assessed as reduction in liver fibrosis at 30 mg/kg, po via gavage administered once daily for 28 days by Sirius Red staining based histological analysis; assay type: functional, organism-based; details: time 28.0 day
[9] = tested on: Mus musculus; assay: Anti-hepatosteatosis activity in C57BL/6J mouse model of high fat-induced obesity assessed as reduction in liver steatosis at 30 mg/kg, po via gavage administered once daily for 28 days by hematoxylin-eosin staining based histological analysis; assay type: functional, organism-based; details: time 28.0 day
[10] = AUC (0 to 24 hrs) in C57BL/6J mouse at 30 mg/kg, po administered via gavage as single dose; assay type: ADME, organism-based; design: time < 24 hr, route oral, dose 30 mg/kg; details: in vivo
[11] = Dissociation constant, pKa of compound; assay type: physicochemical
[12] = Oral bioavailability in Sprague-Dawley rat at 2 mg/kg; assay type: ADME, organism-based; details: in vivo
[13] = Volume of distribution at steady state in Sprague-Dawley rat at 1 mg/kg, iv and 2 mg/kg, po; assay type: ADME, organism-based; details: in vivo, read-out: Vdss
[14] = Plasma clearance in Sprague-Dawley rat at 1 mg/kg, iv and 2 mg/kg, po; assay type: ADME, organism-based
[15] = Tmax in Sprague-Dawley rat at 3 mg/kg, ip; assay type: ADME, organism-based; details: in vivo
[16] = MRT in Sprague-Dawley rat at 3 mg/kg, ip; assay type: ADME, organism-based; details: in vivo

SMILES	Ratio EC50 [1]	also measured
CC(C)c1cc(Oc2c(Cl)cc(NCc3noc(=O)[nH]3)cc2Cl)n[nH]c1=O	1.8	–
CC(C)c1cc(Oc2c(Cl)cc(NC(=O)c3noc(=O)[nH]3)cc2Cl)n[nH]c1=O	21.6	Activity [2]: Dose-dependent effect
CC(C)c1cc(Cc2c(Cl)cc(NC(=O)c3noc(=O)[nH]3)cc2Cl)nn(C)c1=O	14.5	–
CC(C)c1cc(Oc2c(Cl)cc(-n3nc(C#N)c(=O)[nH]c3=O)cc2Cl)n[nH]c1=O	15	–
CCC(O)c1cc(Oc2c(Cl)cc(NC(=O)c3noc(=O)[nH]3)cc2Cl)n[nH]c1=O (racemic)	16.2	–
CC(CO)c1cc(Oc2c(Cl)cc(NC(=O)c3noc(=O)[nH]3)cc2Cl)nn(C)c1=O (racemic)	9.2	–
CC(C)c1cc(C(=O)c2c(Cl)cc(NCc3noc(=O)[nH]3)cc2Cl)nn(C)c1=O	0.8	–
CC(C)(C)c1cc(Oc2c(Cl)cc(NC(=O)c3noc(=O)[nH]3)cc2Cl)n[nH]c1=O	12.3	–
Cc1cc(OCP(=O)(O)O)cc(C)c1Cc1ccc(O)c(C(C)C)c1 [MB07344]	2.1	half-life [3]: 10.2 h; half-life [4]: 6.5 h; half-life [5]: 9.3 h
CC(C)(O)c1cc(Oc2c(Cl)cc(NC(=O)c3noc(=O)[nH]3)cc2Cl)n[nH]c1=O	11.1	–
CC(O)c1cc(Oc2c(Cl)cc(NC(=O)c3noc(=O)[nH]3)cc2Cl)n[nH]c1=O (racemic)	16.5	–
CC(C)c1cc(Oc2c(Cl)cc(NCc3noc(=O)[nH]3)cc2Cl)nn(C)c1=O	8.6	–
CC(C)c1cc(Cc2c(Cl)cc(NCc3noc(=O)[nH]3)cc2Cl)nn(C)c1=O	1.7	–
CC(C)c1cc(Oc2c(Cl)cc(N(C)Cc3noc(=O)[nH]3)cc2Cl)nn(C)c1=O	0.5	–
CC(C)c1cc(C(=O)c2c(Cl)cc(NC(=O)c3noc(=O)[nH]3)cc2Cl)nn(C)c1=O	6.1	–
CC(C)c1cc(Oc2c(Cl)cc(NC(=O)c3noc(=O)[nH]3)cc2Cl)nn(C)c1=O	14.1	Activity [6]: Active; Activity [7]: Active; Activity [8]: Active; Activity [9]: Active; AUC(0-t) at 24 h [10]: 17200 ng·h/mL; pKa [11]: 4.5; bioavailability [12]: 24%; Vd [13]: 0.53 L/kg; clearance [14]: 13 mL/min/kg; Tmax [15]: 1 h; MRT [16]: 1.8 h; Activity [2]: Dose-dependent effect
CC(C)c1cc(Oc2c(Cl)cc(NC(C)c3noc(=O)[nH]3)cc2Cl)nn(C)c1=O (racemic)	0.2	–
